The subject of one data set is A-375. Briefly: Antiproliferative activity against human A375 cells after 72 hrs by CCK-8 assay. Format: functional, cell-based. The conditions noted are these: A-375, 72 h. Background: Tetrazolium assays rely on reduction of a dye to a coloured formazan, in cell work by metabolically active cells.
Another data set has as its system A549. The experiment in a line: Antiproliferative activity against human A549 cells after 72 hrs by CCK-8 assay. It is filed as functional, cell-based. The conditions noted are these: A549, 72 h.
The next data set deals with SH-SY5Y. The experiment in a line: Antiproliferative activity against human SH-SY5Y cells after 72 hrs by CCK-8 assay. It is filed as functional, cell-based.
A further data set has as its system HCT-116. The experiment in a line: Antiproliferative activity against human HCT116 cells after 72 hrs by CCK-8 assay. Format: functional, cell-based. The note with it: HCT-116, 72 h.
In the next data set the test system is PC-12. The experiment in a line: Antiproliferative activity against rat PC12 cells after 72 hrs by CCK-8 assay. It is filed as functional, cell-based. The note with it: PC-12, 72 h.
The next data set relates to L02. Briefly: Antiproliferative activity against human L02 cells after 72 hrs by CCK-8 assay. It is filed as cell-based. The note with it: L02, 72 h.
Data set [1] in a line: Stability of the compound in air at 60 degC after 24 hrs. Format: physicochemical.
A short description of data set [2]: Half life in human liver microsomes at 1.11 uM preincubated for 10 mins followed by NADPH addition by LC-MS/MS analysis. It is filed as ADME, microsome. For orientation: Liver microsomes are vesicles of endoplasmic reticulum, rich in cytochrome P450 enzymes.
The nature of data set [3]: Clearance in human liver microsomes at 1.11 uM preincubated for 10 mins followed by NADPH addition by LC-MS/MS analysis. It is filed as ADME, microsome. The note with it: read-out: CLH.

Broadly, the IC50 is the concentration at which inhibition is half-maximal. For the compound `C[C@H]1[C@@H](O)O[C@@H]2O[C@@]3(C)CC[C@H]4[C@H](C)CC[C@@H]1[C@@]24OO3` [ARTENIMOL], the IC50 is > 50 µM in the data set on A-375; 29.9 µM in the data set with A549; > 50 µM in the data set with SH-SY5Y; 32.8 µM in the data set on HCT-116; > 50 µM with PC-12; > 50 µM in the data set on L02.

As to `C[C@@H]1CC[C@@H]2[C@]34OO[C@](C)(CC[C@@H]13)O[C@H]4O[C@]2(C)C(=O)NCCCCCCCCNC(=O)[C@@]1(C)O[C@@H]2O[C@@]3(C)CC[C@H]4[C@H](C)CC[C@@H]1[C@@]24OO3`, the IC50 in the data set on A-375 was 19.4 µM; with A549 it was 18.9 µM; with SH-SY5Y, > 50 µM; with HCT-116 it was > 50 µM; in the data set with PC-12 it was 11.2 µM; in the data set with L02, > 50 µM.

Turning to `C[C@@H]1CC[C@@H]2[C@]34OO[C@](C)(CC[C@@H]13)O[C@H]4O[C@]2(C)C(=O)OCCCCCCCCCCOC(=O)[C@@]1(C)O[C@@H]2O[C@@]3(C)CC[C@H]4[C@H](C)CC[C@@H]1[C@@]24OO3`, the IC50 in the data set on A-375 is 20.8 µM; in the data set on A549 it was 29 µM; in the data set with SH-SY5Y, > 50 µM; with HCT-116, > 50 µM; in the data set on PC-12, > 50 µM; in the data set with L02, > 50 µM.

Consider `C[C@@H]1CC[C@@H]2[C@]34OO[C@](C)(CC[C@@H]13)O[C@H]4O[C@]2(C)C(=O)OCCCCCCCCOC(=O)[C@@]1(C)O[C@@H]2O[C@@]3(C)CC[C@H]4[C@H](C)CC[C@@H]1[C@@]24OO3`, for which the IC50 in the data set with A-375 amounted to 5.73 µM; in the data set on A549 it was 4.69 µM; with SH-SY5Y, 4.87 µM; with HCT-116 it was 31.6 µM; in the data set with PC-12, 5.67 µM; in the data set with L02 it was 4.84 µM.

Turning to `C[C@@H]1CC[C@@H]2[C@]34OO[C@](C)(CC[C@@H]13)O[C@H]4O[C@]2(C)/C=C\COP(=O)(OC/C=C/[C@@]1(C)O[C@@H]2O[C@@]3(C)CC[C@H]4[C@H](C)CC[C@@H]1[C@@]24OO3)Oc1ccccc1`, the 50% inhibitory concentration (IC50) in the data set with A-375 worked out at 8.14 µM; in the data set with A549 it was 10.7 µM; with SH-SY5Y, 5.79 µM; in the data set with HCT-116, 9.1 µM; in the data set on PC-12, 7.22 µM; in the data set on L02, 31.6 µM.

For `C[C@@H]1CC[C@H]2[C@@H](C)C(=O)O[C@@H]3O[C@@]4(C)CC[C@@H]1[C@]32OO4` [ARTEMISININ], the IC50 in the data set with A-375, in the data set on A549, in the data set on SH-SY5Y, with HCT-116, with PC-12 and in the data set on L02 was > 50 µM throughout.

In the case of `C[C@@H]1CC[C@@H]2[C@]34OO[C@](C)(CC[C@@H]13)O[C@H]4O[C@]2(C)C(=O)O`, the IC50 with A-375 is > 50 µM; in the data set on A549, > 50 µM; in the data set with SH-SY5Y, > 50 µM; in the data set on HCT-116, > 50 µM; with PC-12, 37.3 µM; with L02, > 50 µM.

For `CCOP(=O)(OC/C=C\[C@@]1(C)O[C@@H]2O[C@@]3(C)CC[C@H]4[C@H](C)CC[C@@H]1[C@@]24OO3)OC/C=C/[C@@]1(C)O[C@@H]2O[C@@]3(C)CC[C@H]4[C@H](C)CC[C@@H]1[C@@]24OO3`, the IC50 in the data set on A-375 stood at 12.4 µM; with A549, 11.4 µM; in the data set on SH-SY5Y, 6.38 µM; in the data set on HCT-116, 10.7 µM; with PC-12, 5.26 µM; with L02 it was 18.7 µM.

Consider `C[C@@H]1CC[C@@H]2[C@]34OO[C@](C)(CC[C@@H]13)O[C@H]4O[C@]2(C)C(=O)OCc1ccccc1COC(=O)[C@@]1(C)O[C@@H]2O[C@@]3(C)CC[C@H]4[C@H](C)CC[C@@H]1[C@@]24OO3`, for which the IC50 was > 50 µM with A-375; 21.7 µM in the data set on A549; 47.5 µM with SH-SY5Y; 15.1 µM in the data set on HCT-116; 8.73 µM in the data set on PC-12; 5 µM in the data set with L02.

A word on the half-life: it is how long it takes for the measured level to halve. With `C[C@@H]1CC[C@H]2[C@@H](O)[C@H](OC(=O)CCC(=O)O[C@@H]3O[C@@H]4O[C@@]5(C)CC[C@H]6[C@H](C)CC[C@@H]([C@H]3O)[C@@]46OO5)O[C@@H]3O[C@@]4(C)CC[C@@H]1[C@]32OO4`, the Stability result in data set [1] is “Stable”. The IC50 in the data set on A-375 was 33.5 µM; in the data set on A549, 45.7 µM; in the data set with SH-SY5Y it was > 50 µM; in the data set with HCT-116 it was 36.3 µM; in the data set with PC-12, > 50 µM; in the data set on L02, > 50 µM. Besides, in data set [2], the half-life at 1.11 µM came out at 8 min. Also, in data set [3], the microsomal CLint at 1.11 µM was determined as 124 µL/min/mg.

For the compound `C[C@]12CC[C@H]3[C@@H](CCC4=CC(=O)CC[C@@]43C)[C@@H]1CC[C@@H]2O` [TESTOSTERONE], in data set [2], the half-life at 1.11 µM is 10.3 min.

With `COc1cccc2c1C(=O)c1c(O)c3c(c(O)c1C2=O)C[C@@](O)(C(=O)CO)C[C@@H]3O[C@H]1C[C@H](N)[C@H](O)[C@H](C)O1` [DOXORUBICIN], the IC50 with A-375 was 0.37 µM; in the data set on A549, 0.43 µM; with SH-SY5Y it was 0.35 µM; with HCT-116, 0.79 µM; in the data set on PC-12 it was 0.52 µM; in the data set with L02 it was 0.85 µM.

As for `C[C@@H]1CC[C@@H]2[C@]34OO[C@](C)(CC[C@@H]13)O[C@H]4O[C@]2(C)C(=O)OCCCCCCCCCOC(=O)[C@@]1(C)O[C@@H]2O[C@@]3(C)CC[C@H]4[C@H](C)CC[C@@H]1[C@@]24OO3`, the IC50 with A-375 is 8.13 µM; in the data set with A549, 12.2 µM; with SH-SY5Y, 5.12 µM; with HCT-116, 7.41 µM; with PC-12 it was 4.46 µM; in the data set on L02, 33.7 µM.

As for `C[C@@H]1CC[C@@H]2[C@]34OO[C@](C)(CC[C@@H]13)O[C@H]4O[C@]2(C)C(=O)Nc1ccccc1NC(=O)[C@@]1(C)O[C@@H]2O[C@@]3(C)CC[C@H]4[C@H](C)CC[C@@H]1[C@@]24OO3`, the IC50 in the data set with A-375 was 11.3 µM; in the data set with A549, 31.6 µM; in the data set with SH-SY5Y, 5.75 µM; with HCT-116, 20 µM; with PC-12, 18.2 µM; with L02, > 50 µM.

For `C[C@@H]1CC[C@@H]2[C@]34OO[C@](C)(CC[C@@H]13)O[C@H]4O[C@]2(C)CO`, the IC50 in the data set on A-375, in the data set with A549, in the data set with SH-SY5Y, with HCT-116, in the data set with PC-12 and in the data set on L02 was > 50 µM throughout.

As for `C[C@@H]1CC[C@@H]2[C@]34OO[C@](C)(CC[C@@H]13)O[C@H]4O[C@]2(C)C(=O)OCCCCCCCOC(=O)[C@@]1(C)O[C@@H]2O[C@@]3(C)CC[C@H]4[C@H](C)CC[C@@H]1[C@@]24OO3`, the IC50 in the data set on A-375 is 7.86 µM; in the data set with A549 it was 7.71 µM; with SH-SY5Y, 7.29 µM; in the data set on HCT-116 it was 11.6 µM; with PC-12, 8.17 µM; in the data set on L02, 16.6 µM.

With `C[C@@H]1CC[C@@H]2[C@]34OO[C@](C)(CC[C@@H]13)O[C@H]4O[C@]2(C)C(=O)OCCCCCCOC(=O)[C@@]1(C)O[C@@H]2O[C@@]3(C)CC[C@H]4[C@H](C)CC[C@@H]1[C@@]24OO3`, the IC50 with A-375 is 22.6 µM; in the data set with A549 it was > 50 µM; in the data set with SH-SY5Y, 15.3 µM; in the data set on HCT-116 it was > 50 µM; in the data set with PC-12, 33.2 µM; in the data set on L02, > 50 µM.

Regarding `C[C@@H]1CC[C@@H]2[C@]34OO[C@](C)(CC[C@@H]13)O[C@H]4O[C@]2(C)C(=O)OCCCCOC(=O)[C@@]1(C)O[C@@H]2O[C@@]3(C)CC[C@H]4[C@H](C)CC[C@@H]1[C@@]24OO3`, the IC50 in the data set with A-375 was 13.2 µM; with A549, 6.56 µM; with SH-SY5Y, 6.26 µM; with HCT-116 it was 7.65 µM; with PC-12, 8.52 µM; in the data set on L02, 16.2 µM.

The values above are taken from ChEMBL document CHEMBL4229365, “Synthesis of novel ring-contracted artemisinin dimers with potent anticancer activities” (Eur J Med Chem, 2018).
